From patent US12545673B2, “Imidazopyridine derivative and pharmaceutical composition comprising same as active ingredient” (TSD LIFE SCIENCES CO., LTD., priority 2019, dated 2026)

Columns and labels:
[1] = biological target: MLK1 (Homo sapiens (Human), UniProt P80192); experiment: Evaluation of inhibitory activity of enzyme units, MLK1 ([γ-33P]-ATP filter assay); assay type: biochemical
[2] = tested on: human breast cancer cell line MDA-MB-231; experiment: Cancer cell proliferation inhibitory activity evaluation 1 (CCK-8), MDA-MB-231; assay type: cell-based; conditions: MDA-MB-231, 72 h, read-out: Cancer cell proliferation inhibitory activity MDAMB231
[3] = tested on: acute myeloid leukemia cell line U937; experiment: Cancer cell proliferation inhibitory activity evaluation 1 (CCK-8), U937; assay type: cell-based; conditions: Homo sapiens, U-937, 72 h, read-out: Cancer cell proliferation inhibitory activity U937
[4] = tested on: colorectal cancer cell line HT-29; experiment: Cancer cell proliferation inhibitory activity evaluation 1 (CCK-8), HT-29; assay type: cell-based; conditions: Homo sapiens, HT-29, 72 h, read-out: Cancer cell proliferation inhibitory activity HT29
[5] = tested on: chronic myeloid leukemia cell line K562; experiment: Cancer cell proliferation inhibitory activity evaluation 1 (CCK-8), K562; assay type: cell-based; conditions: Homo sapiens, K562, 72 h, read-out: Cancer cell proliferation inhibitory activity K562
[6] = tested on: acute myeloid leukemia cell line U937; experiment: Cancer cell proliferation inhibitory activity evaluation 2 (CCK-8), U937; assay type: cell-based; conditions: Homo sapiens, U-937, 72 h, read-out: Cancer cell proliferation inhibitory activity U937
[7] = tested on: acute lymphoblastic leukemia cell line Jurkat; experiment: Cancer cell proliferation inhibitory activity evaluation 2 (CCK-8), Jurkat; assay type: cell-based; conditions: Homo sapiens, 72 h, read-out: Cancer cell proliferation inhibitory activity Jurkat
[8] = tested on: gastric cancer cell line AGS; experiment: Cancer cell proliferation inhibitory activity evaluation 2 (CCK-8), AGS; assay type: cell-based; conditions: Homo sapiens, 72 h, read-out: Cancer cell proliferation inhibitory activity AGS
[9] = tested on: α-SMA; experiment: Fibrosis inhibition evaluation 1, palmitic acid-induced HepG2, real-time PCR, α-SMA; assay type: cell-based, human; conditions: palmitic acid-induced HepG2 (Table 6)
[10] = tested on: Col1A1; experiment: Fibrosis inhibition evaluation 1, palmitic acid-induced HepG2, real-time PCR, Col1A1; assay type: cell-based, human
[11] = tested on: Col6A3; experiment: Fibrosis inhibition evaluation 1, palmitic acid-induced HepG2, real-time PCR, Col6A3; assay type: cell-based, human
[12] = biological target: LRRK2 wild-type (Homo sapiens (Human), UniProt Q5S007); experiment: Evaluation of inhibitory activity against LRRK2 (affinity bead competition binding), wild-type; conditions: read-out: Residual active values (%) LRRK2
Procedure, shortened: (§1)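 Competition binding against immobilized biotinylated ligand for DNA-tagged wild-type or G2019S LRRK2, produced from T7 phage-infected E. coli (MOI 0.4, 32° C.) lysate then HEK293 cells. Beads blocked and washed in SeaBlock buffer (1% BSA, 0.05% Tween 20, 1 mM DTT); compounds prepared as 40× stocks in 100% DMSO.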

[13] = biological target: LRRK2 mutant (G2019S) (Homo sapiens (Human), UniProt Q5S007, G2019S); experiment: Evaluation of inhibitory activity against LRRK2 (affinity bead competition binding), G2019S mutant; conditions: read-out: Residual active values (%) LRRK2(G2019S)
Procedure, shortened: as §1

[14] = tested on: influenza virus PR8; experiment: microbe, parasite or virus in culture; assay type: cell-based; conditions: unidentified influenza virus, PR8, MDCK, read-out: Antiviral activity (EC50, μM) PR8
[15] = tested on: influenza virus HK; experiment: microbe, parasite or virus in culture; assay type: cell-based
[16] = tested on: influenza virus LE; experiment: microbe, parasite or virus in culture; assay type: cell-based; conditions: unidentified influenza virus, MDCK, read-out: Antiviral activity (EC50, μM) LE
[17] = in vitro; conditions: dog
[18] = biological target: MLK3 (Homo sapiens (Human), UniProt Q16584); experiment: Evaluation of inhibitory activity of enzyme units, MLK3 ([γ-33P]-ATP filter assay); conditions: read-out: IC50(nM) MLK3
MLK3, sequence (Q16584 whole entry, looked up): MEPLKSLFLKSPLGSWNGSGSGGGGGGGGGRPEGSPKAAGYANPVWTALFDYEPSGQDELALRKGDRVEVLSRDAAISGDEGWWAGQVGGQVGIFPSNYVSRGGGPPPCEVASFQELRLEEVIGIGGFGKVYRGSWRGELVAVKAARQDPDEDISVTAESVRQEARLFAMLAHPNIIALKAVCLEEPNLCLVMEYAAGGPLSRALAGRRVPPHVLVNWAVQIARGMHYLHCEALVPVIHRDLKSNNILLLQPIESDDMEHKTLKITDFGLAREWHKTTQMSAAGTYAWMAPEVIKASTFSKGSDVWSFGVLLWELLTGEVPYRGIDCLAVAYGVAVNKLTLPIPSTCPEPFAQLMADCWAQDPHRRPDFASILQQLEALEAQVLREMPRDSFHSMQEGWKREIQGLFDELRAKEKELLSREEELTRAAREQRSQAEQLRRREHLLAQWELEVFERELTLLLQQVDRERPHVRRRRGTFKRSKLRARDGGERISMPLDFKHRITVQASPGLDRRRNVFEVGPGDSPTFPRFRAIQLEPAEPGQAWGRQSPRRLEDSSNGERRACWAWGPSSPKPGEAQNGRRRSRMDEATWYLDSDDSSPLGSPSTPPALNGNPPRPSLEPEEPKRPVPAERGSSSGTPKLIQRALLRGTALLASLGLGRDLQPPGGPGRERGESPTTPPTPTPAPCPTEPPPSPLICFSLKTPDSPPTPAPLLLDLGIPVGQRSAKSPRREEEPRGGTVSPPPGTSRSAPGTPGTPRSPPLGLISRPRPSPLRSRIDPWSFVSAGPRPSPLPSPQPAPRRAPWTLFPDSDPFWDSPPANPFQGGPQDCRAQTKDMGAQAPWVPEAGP

LRRK2 mutant (G2019S), sequence (Q5S007 whole entry G2019S, looked up): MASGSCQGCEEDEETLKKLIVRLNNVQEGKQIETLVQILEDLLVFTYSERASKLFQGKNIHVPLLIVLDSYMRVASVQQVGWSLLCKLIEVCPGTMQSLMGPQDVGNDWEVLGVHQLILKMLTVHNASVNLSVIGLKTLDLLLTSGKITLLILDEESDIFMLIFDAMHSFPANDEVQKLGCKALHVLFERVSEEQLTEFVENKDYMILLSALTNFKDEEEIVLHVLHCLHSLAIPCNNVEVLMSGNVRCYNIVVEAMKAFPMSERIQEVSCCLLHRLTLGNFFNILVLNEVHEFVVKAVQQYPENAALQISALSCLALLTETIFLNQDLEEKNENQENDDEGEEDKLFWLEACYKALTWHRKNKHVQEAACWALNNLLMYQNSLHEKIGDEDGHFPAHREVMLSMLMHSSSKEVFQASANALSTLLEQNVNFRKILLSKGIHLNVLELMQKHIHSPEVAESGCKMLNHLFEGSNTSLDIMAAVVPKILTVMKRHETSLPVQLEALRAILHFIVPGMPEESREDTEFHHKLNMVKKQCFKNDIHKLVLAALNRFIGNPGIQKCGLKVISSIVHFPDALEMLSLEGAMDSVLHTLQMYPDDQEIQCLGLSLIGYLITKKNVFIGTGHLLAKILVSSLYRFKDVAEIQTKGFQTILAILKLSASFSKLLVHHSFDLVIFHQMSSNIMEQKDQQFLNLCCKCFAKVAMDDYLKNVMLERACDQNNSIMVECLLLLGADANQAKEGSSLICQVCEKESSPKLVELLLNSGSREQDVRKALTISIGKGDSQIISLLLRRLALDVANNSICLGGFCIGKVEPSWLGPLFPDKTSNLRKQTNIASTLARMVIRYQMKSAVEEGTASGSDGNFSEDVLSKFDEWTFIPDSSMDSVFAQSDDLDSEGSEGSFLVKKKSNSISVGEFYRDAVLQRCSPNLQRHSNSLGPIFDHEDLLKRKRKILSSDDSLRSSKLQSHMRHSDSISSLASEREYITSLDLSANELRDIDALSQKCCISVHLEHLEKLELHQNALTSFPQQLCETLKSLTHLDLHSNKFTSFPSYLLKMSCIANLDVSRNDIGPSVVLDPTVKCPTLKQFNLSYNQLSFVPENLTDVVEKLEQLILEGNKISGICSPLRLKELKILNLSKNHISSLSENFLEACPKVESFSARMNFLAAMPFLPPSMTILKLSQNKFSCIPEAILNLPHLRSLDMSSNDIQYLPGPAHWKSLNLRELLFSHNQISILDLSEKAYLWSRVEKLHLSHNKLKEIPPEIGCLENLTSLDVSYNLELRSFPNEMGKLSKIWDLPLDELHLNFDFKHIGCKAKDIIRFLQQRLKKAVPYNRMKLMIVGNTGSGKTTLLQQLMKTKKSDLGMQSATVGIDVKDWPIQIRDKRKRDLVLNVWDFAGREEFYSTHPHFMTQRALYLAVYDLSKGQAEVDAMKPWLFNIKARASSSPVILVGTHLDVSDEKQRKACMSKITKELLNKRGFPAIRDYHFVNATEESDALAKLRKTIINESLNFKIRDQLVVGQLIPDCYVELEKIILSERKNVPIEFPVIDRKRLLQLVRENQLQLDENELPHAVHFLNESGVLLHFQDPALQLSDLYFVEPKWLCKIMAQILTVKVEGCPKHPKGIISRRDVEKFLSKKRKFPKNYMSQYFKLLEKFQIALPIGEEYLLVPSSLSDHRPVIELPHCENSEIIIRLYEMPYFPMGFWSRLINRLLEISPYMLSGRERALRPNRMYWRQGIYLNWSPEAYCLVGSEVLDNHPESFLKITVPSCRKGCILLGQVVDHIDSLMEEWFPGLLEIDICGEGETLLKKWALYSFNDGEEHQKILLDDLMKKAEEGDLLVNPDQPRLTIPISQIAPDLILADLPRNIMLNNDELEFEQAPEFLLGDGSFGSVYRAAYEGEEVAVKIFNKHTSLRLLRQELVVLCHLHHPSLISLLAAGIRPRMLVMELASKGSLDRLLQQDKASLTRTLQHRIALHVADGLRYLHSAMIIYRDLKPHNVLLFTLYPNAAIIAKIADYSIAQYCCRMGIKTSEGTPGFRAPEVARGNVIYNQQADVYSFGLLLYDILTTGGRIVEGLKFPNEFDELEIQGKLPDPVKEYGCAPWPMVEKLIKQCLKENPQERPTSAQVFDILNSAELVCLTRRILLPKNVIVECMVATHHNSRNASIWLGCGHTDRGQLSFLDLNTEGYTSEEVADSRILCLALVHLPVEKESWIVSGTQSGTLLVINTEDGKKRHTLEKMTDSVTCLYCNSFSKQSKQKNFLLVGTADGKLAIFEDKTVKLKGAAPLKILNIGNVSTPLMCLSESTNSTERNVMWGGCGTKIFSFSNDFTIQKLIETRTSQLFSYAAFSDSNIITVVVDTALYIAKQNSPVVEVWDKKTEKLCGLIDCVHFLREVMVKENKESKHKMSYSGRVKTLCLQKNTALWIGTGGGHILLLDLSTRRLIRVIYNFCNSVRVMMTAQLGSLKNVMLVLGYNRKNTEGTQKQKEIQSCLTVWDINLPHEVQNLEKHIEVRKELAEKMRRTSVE
LRRK2 wild-type, sequence (Q5S007 whole entry, looked up): as the sequence (Q5S007 whole entry G2019S, looked up) above, with S2019G counted along it
MLK1, sequence (P80192 whole entry, looked up): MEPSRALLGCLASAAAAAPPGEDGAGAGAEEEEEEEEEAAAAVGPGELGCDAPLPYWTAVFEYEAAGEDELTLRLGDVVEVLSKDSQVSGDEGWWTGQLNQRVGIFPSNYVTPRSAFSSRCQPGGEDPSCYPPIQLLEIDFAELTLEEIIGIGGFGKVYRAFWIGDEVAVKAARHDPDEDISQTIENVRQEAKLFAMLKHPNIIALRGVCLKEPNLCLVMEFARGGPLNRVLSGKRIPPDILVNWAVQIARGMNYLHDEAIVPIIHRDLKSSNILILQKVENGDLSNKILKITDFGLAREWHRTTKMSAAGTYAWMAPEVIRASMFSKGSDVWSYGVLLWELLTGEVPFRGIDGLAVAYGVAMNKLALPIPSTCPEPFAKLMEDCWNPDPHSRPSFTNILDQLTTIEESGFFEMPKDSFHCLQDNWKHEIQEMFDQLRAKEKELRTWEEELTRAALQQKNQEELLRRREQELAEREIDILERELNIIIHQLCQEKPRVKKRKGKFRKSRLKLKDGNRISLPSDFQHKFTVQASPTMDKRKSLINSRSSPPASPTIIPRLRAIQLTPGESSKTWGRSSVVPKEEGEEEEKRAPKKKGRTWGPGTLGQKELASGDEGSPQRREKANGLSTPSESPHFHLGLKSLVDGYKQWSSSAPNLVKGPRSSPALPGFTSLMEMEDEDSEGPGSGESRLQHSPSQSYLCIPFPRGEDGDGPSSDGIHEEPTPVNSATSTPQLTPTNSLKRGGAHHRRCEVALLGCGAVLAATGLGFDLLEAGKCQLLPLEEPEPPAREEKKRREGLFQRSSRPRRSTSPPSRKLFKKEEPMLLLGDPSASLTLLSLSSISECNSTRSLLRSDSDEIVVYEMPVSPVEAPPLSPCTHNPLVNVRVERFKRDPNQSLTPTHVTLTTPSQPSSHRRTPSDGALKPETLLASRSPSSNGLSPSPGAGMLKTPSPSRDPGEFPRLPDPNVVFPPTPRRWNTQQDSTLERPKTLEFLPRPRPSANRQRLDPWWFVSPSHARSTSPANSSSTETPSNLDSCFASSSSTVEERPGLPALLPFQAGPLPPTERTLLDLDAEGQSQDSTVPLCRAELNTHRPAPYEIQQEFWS

**Q.** What does the source list for `CCS(=O)(=O)N1CC[C@H](Nc2c(Br)cnc3[nH]c(-c4cc(C)n(-c5cc(NS(C)(=O)=O)ccc5C)c4C)nc23)C1` [Example 7, N-(3-(3-(6-bromo-7-(((S)-1-(ethylsulfonyl)pyrrolidine-3-yl)amino)-3H-imidazo[4,5-b]pyridine-2-yl)-2,5-dimethyl-1H-pyrrol-1-yl)-4-methylphenyl) methanesulfonamide]?
**A.** IC50 [1]: 44 nM; inhibition at 10 µM [2]: 10 to 50%; inhibition at 10 µM [3]: > 50%; inhibition at 10 µM [4]: 10 to 50%; inhibition at 10 µM [5]: > 50%; inhibition at 10 µM [6]: > 50%; inhibition at 10 µM [7]: > 50%; inhibition at 10 µM [8]: > 50%; Relative degree of expression inhibition (%) α-SMA [9]: 73.1%; Relative degree of expression inhibition (%) Col1A1 [10]: 200.2%; Relative degree of expression inhibition (%) Col6A3 [11]: 116.2%; remaining binding at 0.1 µM ([12]; 100 nM): 2.9%; remaining binding at 0.5 µM ([12]; 500 nM): 0.4%; remaining binding at 0.1 µM ([13]; 100 nM): 2.3%; remaining binding at 0.5 µM ([13]; 500 nM): 1.5%; EC50 [14]: 31.9 µM; Selectivity index: CC50/EC50 HK [15]: >2.5; EC50 ([15]; unidentified influenza virus, MDCK, read-out: Antiviral activity (EC50, μM) HK): 40 µM; EC50 [16]: > 100 µM; CC50 at 3 days [17]: > 100 µM; IC50 [18]: 6 nM
